Like-named read-outs stand apart in the source and are kept apart here.
Legend:
Assay type in all cases: cell-based
OVCAR-3 = assay: Cell viability assay, OVCAR-3; conditions: ovarian carcinoma OVCAR-3
Protocol: (§1) Antitumor activity of the compounds and doxorubicin as a positive control was assessed by using the CellTiter-Blue Cell Viability Assay (Promega, #G8082) or CellTiter-Glow® Luminescent Cell Viability assay (Promega #G7572) according to the manufacturer's instructions. The compounds were tested at 5 or 6 concentrations in half-log increments (highest concentration 30 μM or 100 μM) in duplicate or triplicate well conditions.
(§2) Tumor cells were grown at 37° C. in a humidified atmosphere with 5% CO2 in RPMI 1640 or DMEM medium, supplemented with 10% (v/v) fetal calf serum and 50 μg/ml gentamicin for up to 20 passages, and were passaged once or twice weekly. Cells were harvested using TrypLE or PBS buffer containing 1 mM EDTA, and the percentage of viable cells was determined using a CASY Model TI cell counter (OMNI Life Science). Cells were harvested from exponential phase cultures, counted and plated in 96 well flat-bottom microtiter plates at a cell density depending on the cell line's growth rate (4,000-20,000 cells/well depending on the cell line's growth rate, up to 60,000 for hematological cancer cell lines) in RPMI 1640 or DMEM medium supplemented with 10% (v/v) fetal calf serum and 50 μg/ml gentamicin (140 μl/well). […] Viability of cells was quantified by the CellTiter-Blue® cell viability assay (Promega G8081) or CellTiter-Glow® Luminescent Cell Viability assay (Promega #G7572). […]

CO-04-0701 = assay: Cell viability, colon PDX CO-04-0701
Protocol: (§3) PDX-derived cell cultures were obtained from tumors explanted from mice and isolated by mechanical and enzymatic dissociation. […] Cells were harvested and seeded in 96-wells plates at a density of 1.25 to 5×10^3 cells/well for cytotoxicity assays. Cells were incubated 48 h at 37° C. prior to addition of test molecules and vehicle (DMSO, 0.1%) at desired final concentrations. Cell viability was assessed before drugs' addition (To) and 5 days after test molecules addition by measuring ATP cell content using CellTiter-Glo® Luminescent Cell Viability Assay (Promega) according to the manufacturer's instructions. Luciferase activity was measured on a luminometer (PerkinElmer® EnVision™). Each concentration of compounds was tested in triplicate.
(§4) Viability was calculated as a percentage of ATP value compared to vehicle treated controls.
(§5) For PDX primary cell cultures, the tumour tissue was washed with PBS containing antibiotic-antimycotic and non-tumour tissue and necrotic tumour tissues were separated. The tumour tissue was transferred to a new dish and cut into 1˜2 mm^3 fragments, resuspended in RPMI-1640 medium and centrifuged at 1,200 rpm for 6 min at room temperature. The pelleted material was resuspended with 15 mL of Tumour Cell Digestion Solution and incubated at 37° C. for 1 hour with agitation. […]

PC-07-0059 = assay: Cell viability, pancreatic PDX PC-07-0059
Protocol: as §3, §4, §5

ST-020012 = assay: Cell viability, stomach PDX ST-020012
Protocol: as §3, §4, §5

22Rv1 = assay: Cell viability assay, 22Rv1; conditions: prostate carcinoma cell line 22Rv1
Protocol: as §1, §2

EN-11-0101 = assay: Cell viability, endometrial PDX EN-11-0101
Protocol: as §3, §4
(§6) For PDX primary cell cultures, the tumour tissue was washed with PBS containing antibiotic-antimycotic and non-tumour tissue and necrotic tumour tissues were separated. The tumour tissue was transferred to a new dish and cut into 1˜2 mm^3 fragments, resuspended in RPMI-1640 medium and centrifuged at 1,200 rpm for 6 min at room temperature. The pelleted material was resuspended with 15 mL of Tumour Cell Digestion Solution and incubated at 37° C. for 1 hour with agitation. Following further addition of media, centrifugation and passage through a 70 μm cell strainer, the homogenous cell mixture was layered onto 15 mL of Ficoll-Paque PLUS in a 50 mL conical tube and centrifuged for 15 min at 1,600 rpm. The interface cells were collected, washed with media, separated by centrifugation at 1,200 rpm. The cell pellet was resuspended in serum free media supplemented with growth factors. 10,000 cells/wells were plated in a 96 well plate and incubated at 37° C., 5% CO2, 95% air and 100% relative humidity overnight. The cytotoxicity assay was conducted as above.
(§7) Sigmoidal concentration-response curves were fitted to the data points (test-versus-control, T/C values) obtained for each tumor model using GraphPad prism 5.02 software.

LU-01-0010 = assay: Cell viability, lung PDX LU-01-0010
Protocol: as §3, §4, §5

PC-3 = assay: Cell viability assay, PC-3; conditions: prostate carcinoma cell line PC-3
Protocol: as §1, §2

HL-60 = assay: Cell viability assay, HL-60
Protocol: as §1
Tumor cells were grown at 37° C. in a humidified atmosphere with 5% CO2 in RPMI 1640 or DMEM medium, supplemented with 10% (v/v) fetal calf serum and 50 μg/ml gentamicin for up to 20 passages, and were passaged once or twice weekly. Cells were harvested using TrypLE or PBS buffer containing 1 mM EDTA, and the percentage of viable cells was determined using a CASY Model TI cell counter (OMNI Life Science). Cells were harvested from exponential phase cultures, counted and plated in 96 well flat-bottom microtiter plates at a cell density depending on the cell line's growth rate (4,000-20,000 cells/well depending on the cell line's growth rate, up to 60,000 for hematological cancer cell lines) in RPMI 1640 or DMEM medium supplemented with 10% (v/v) fetal calf serum and 50 μg/ml gentamicin (140 μl/well). Cultures were incubated at 37° C. and 5% CO2 in a humidified atmosphere. After 24 h, 10 μl of test compounds or control medium were added and left on the cells for another 72 h. Compounds were serially diluted in DMSO, transferred in cell culture medium, and added to the assay plates. The DMSO concentration was kept constant at <0.3% v/v across the assay plate. Viability of cells was quantified by the CellTiter-Blue® cell viability assay (Promega G8081) or CellTiter-Glow® Luminescent Cell Viability assay (Promega #G7572). Fluorescence (FU) was measured by using the EnSpire® multimode plate reader (Perkin Elmer) (excitation λ=570 nm, emission λ=600 nm) Luminescence was measured with a microplate luminometer (Promega or PerkinElmer). […]

HN-13-0020 = assay: Cell viability, head and neck PDX HN-13-0020
Protocol: as §3, §4, §6, §7

KI-12-0062 = assay: Cell viability, kidney PDX KI-12-0062
Protocol: as §3, §4, §6, §7

HT-29 = assay: Cell viability assay, HT-29; conditions: colon carcinoma cell line HT-29
Protocol: as §1, §2

CO-04-0700 = assay: Cell viability, colon PDX CO-04-0700
Protocol: as §3, §4, §5

BR-05-0399 = assay: Cell viability, breast PDX BR-05-0399
Protocol: as §3, §4, §5

MCF-7 = assay: Cell viability assay, MCF-7; conditions: breast carcinoma cell line MCF-7
Protocol: as §1, §2

LU-01-0025 = assay: Cell viability, lung PDX LU-01-0025
Protocol: as §3, §4, §5

ST-02-0173 = assay: Cell viability, stomach PDX ST-02-0173
Protocol: as §3, §4, §5

ES-06-0122 = assay: Cell viability, esophagus PDX ES-06-0122
Protocol: as §3, §4, §5

HCT-15 = assay: Cell viability assay, HCT-15; conditions: colon carcinoma cell line HCT-15
Protocol: as §1, §2

[1] = endometrial PDX EN-11-0101, read-out: IC50
[2] = head and neck PDX HN-13-0020, read-out: IC50
[3] = kidney PDX KI-12-0062, read-out: IC50

| Structure (SMILES) | IC50 (CO-04-0701) [µM] | IC50 (PC-07-0059) [µM] | IC50 (ST-020012) [µM] | IC50 (EN-11-0101; [1]) [µM] | IC50 (LU-01-0010) [µM] | IC50 (HN-13-0020; [2]) [µM] | IC50 (KI-12-0062; [3]) [µM] | IC50 (CO-04-0700) [µM] | IC50 (BR-05-0399) [µM] | IC50 (LU-01-0025) [µM] | IC50 (ST-02-0173) [µM] | IC50 (ES-06-0122) [µM] | also measured |
| --- | --- | --- | --- | --- | --- | --- | --- | --- | --- | --- | --- | --- | --- |
| COc1c(O)ccc2c(=O)c(O)c(-c3ccc(CCCC[P+](c4ccccc4)(c4ccccc4)c4ccccc4)cc3)oc12 [SND190, (4-(4-(3,7-Dihydroxy-8-methoxy-4-oxo-4H1-chromen-2-yl)phenyl)butyl)triphenylphosphonium bromide] | 14.7 | 2.3 | 4.5 | 7.9 | 1.1 | 2.26 | 15.1 | 2.4 | 5.4 | 0.6 | 11 | 6.5 | IC50 (OVCAR-3; Homo sapiens): 3.81 µM; IC50 (22Rv1; Homo sapiens): 0.79 µM; IC50 (EN-11-0101; Table 8, read-out: IC50, endometrial PDX growth): < 20 µM; IC50 (PC-3; Homo sapiens): 1.69 µM; IC50 (HL-60; Homo sapiens, HL-60, summary of Table 12, read-out: IC50, leukaemia cell growth): < 1 µM; IC50 (HL-60; Homo sapiens, leukaemia cell line HL-60, read-out: IC50): 0.3 µM; IC50 (HN-13-0020; summary of Table 10, read-out: IC50, head and neck PDX growth): < 5 µM; IC50 (KI-12-0062; text summary of Table 11 (kidney PDX), read-out: IC50, kidney PDX growth): < 20 µM; IC50 (HT-29; Homo sapiens): 5.78 µM; IC50 (MCF-7; Homo sapiens, MCF7): 3.91 µM; IC50 (HCT-15; Homo sapiens): 15 µM |
| O=c1cc(-c2ccc(CCC[P+](c3ccccc3)(c3ccccc3)c3ccccc3)cc2)oc2c(O)c(O)ccc12 [SND200, (3-(4-(7,8-Dihydroxy-4-oxo-4H1-chromen-2-yl)phenyl)propyl)triphenylphosphonium bromide] | 15.1 | 6.7 | 8.8 | 10.4 | 10 | 4.1 | 14.5 | 7.6 | 14.9 | 4.9 | 15.5 | 8.8 | IC50 (OVCAR-3): 1.6 µM; IC50 (22Rv1): 0.42 µM; IC50 (PC-3): 0.3 µM; IC50 (HL-60; leukaemia cell line HL-60, read-out: IC50): 0.3 µM; IC50 (HT-29): 3.31 µM; IC50 (MCF-7): 1.68 µM; IC50 (HCT-15): 7.49 µM |

Source: patent US20240124503A1, “HETEROAROMATIC PHOSPHONIUM SALTS AND THEIR USE TREATING CANCER” (FLORATEK PHARMA S.A., priority 2021, published 2024)
